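48-hour exposure; five concentrations; linearly interpolated endpoints. The concentration for 50% growth inhibition is given as GI50. TGI denotes the concentration required for complete inhibition of growth.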
Assays:
Assay in all cases: growth of human tumour cells (NCI), 48 h
[1] = system: HT29 colon
[2] = system: IGROV1 ovarian
[3] = system: A498 renal
[4] = system: NCI-H522 lung
[5] = system: HOP-92 NSCLC
[6] = system: HCT-15 colon
[7] = system: SN12C renal
[8] = system: NCI-H460 lung
[9] = system: SF-539 CNS
[10] = system: UACC-62 melanoma

SMILES	GI50 [1]	TGI [1]	GI50 [2]	TGI [2]	GI50 [3]	TGI [3]	GI50 [4]	TGI [4]	GI50 [5]	TGI [5]	GI50 [6]	TGI [6]	GI50 [7]	TGI [7]	GI50 [8]	TGI [8]	GI50 [9]	TGI [9]	GI50 [10]	TGI [10]
COc1ccc(-c2cc(-c3ccc(Cl)cc3)nc(NCCCCNc3ccnc4cc(Cl)ccc34)n2)cc1	1.68 µM	3.57 µM	1.46 µM	3.12 µM	4.17 µM	17.4 µM	3.65 µM	14.6 µM	1.67 µM	18.3 µM	1.69 µM	3.71 µM	1.5 µM	3.18 µM	2.04 µM	4.35 µM	6.8 µM	20.9 µM	17.8 µM	35.8 µM
CS(=O)(=O)c1cccc(Nc2ncc3cc(-c4ccccc4Cl)ccc3n2)c1	1.01 µM	19.1 µM	1.1 µM	12.4 µM	1.75 µM	12.1 µM	0.773 µM	2.78 µM	1.3 µM	7.56 µM	0.821 µM	> 33.3 µM	1.12 µM	> 33.3 µM	1.22 µM	25.8 µM	0.94 µM	25.5 µM	1.17 µM	5.74 µM
CC1C=CC(C(N)C(=O)O)O1 (stereo not given)		> 100 µM		> 100 µM		> 100 µM		> 100 µM		> 100 µM		> 100 µM		> 100 µM		> 100 µM		> 100 µM		> 100 µM
CC(=O)Nc1ccc(S(=O)(=O)N=S(C)C)cc1		> 100 µM		> 100 µM		> 100 µM		> 100 µM		> 100 µM		> 100 µM		> 100 µM		> 100 µM		> 100 µM		> 100 µM
CCN1C(=O)N(CC)C2C1NN=c1s/c(=C3\C(=O)N(C4CCCC4)c4ccccc43)c(=O)n12 (stereo not given)	0.695 µM	> 100 µM	0.773 µM	> 100 µM	0.198 µM	0.854 µM	0.573 µM	5.57 µM	1.21 µM	6.4 µM	0.479 µM	> 100 µM	2.76 µM	> 100 µM	0.906 µM	> 100 µM	0.484 µM	2.4 µM	0.465 µM	36 µM
COc1ccc(-c2cn(-c3ccc(OC)c(OC)c3)c(=O)[nH]2)cc1	65.1 µM	> 100 µM	> 100 µM	> 100 µM	> 100 µM	> 100 µM	> 100 µM	> 100 µM	> 100 µM	> 100 µM	> 100 µM	> 100 µM	> 100 µM	> 100 µM	> 100 µM	> 100 µM	> 100 µM	> 100 µM	> 100 µM	> 100 µM
Cc1nc2sc3c(N)ncnc3c2c(C)c1C	> 25 µM	> 25 µM	> 25 µM	> 25 µM	> 25 µM	> 25 µM	> 25 µM	> 25 µM	> 25 µM	> 25 µM	> 25 µM	> 25 µM	> 25 µM	> 25 µM	> 25 µM	> 25 µM	> 25 µM	> 25 µM	> 25 µM	> 25 µM
